The values below come from patent publication US20250003877A1, “Silyl Bridged Dyes” (priority 2021, published 2025).

Series [1] is described as follows: KL-Z lactone-zwitterion equilibrium. The class given is physicochemical. The conditions noted are these: 1:1 v/v dioxane:water.
For series [2] the following is noted: for ϕ (quantum yield): pH 7.4.
Series [3] relates to HaloTag®-GFP-expressing HeLa cells. Kind of series: No-wash live cell imaging of HaloTag-expressing cells with a Si-bridge dye. The class given is cell-based. The conditions noted are these: 200 nM dye, 15 min, 37° C., HeLa transfected with pHaloTag®-EGFP. On the procedure: HeLa cells were seeded in 35 mm glass bottom dishes (Cellvis, catalog no. D35-28-O—N), and transfected with pHaloTag®-EGFP (Addgene #86629). Transient transfections were performed using Lipofectamine 2000 (Invitrogen, catalog no. 1168019) following the manufacturer's instructions. HeLa cell labeling and confocal imaging were performed 24 hr after transfection.
Labeling with JF646-HaloTag® ligand (Promega) and new dyes containing HaloTag® ligands were performed following the manufacturer's instructions. Briefly, cells were incubated with 200 nM dye in DMEM for 15 min at 37° C. Subsequently, images were obtained on a Leica SP-8 Confocal Microscope (SCOPE core facility, UMass Medical School), using a 40×1.15 Oil DIC objective. EGFP was excited with the Argon (488 nm) laser at a 15% intensity and detected through a 505-530 band pass filter and a pinhole set to 53.12 μm. Dyes fluorescing in the Cy5 channel were excited with the HeNe (633 nm) laser at a 15% intensity and detected through a 640-615 band pass filter and […] pinhole. Image analysis was performed using Leica LAS X SP8 software and ImageJ software.

The conditions of series [4]: literature values; cited from earlier work.
Setting [5] is: spirolactone dyes, table title says PBS, text (b560-b564) says maximal ε when ring-opened in EtOH/0.1% TFA.
[6] abbreviates: spirolactone dyes, ϕ in PBS × ε in EtOH/0.1% TFA.

Like-named read-outs stand apart in the source and are kept apart here.

`CN(C)c1ccc2c(c1)[Si](C)(C)c1cc(N(C)C)ccc1C21OC(=O)c2ccccc21` [Compound 032, 3,7-Bis(dimethylamino)-5,5-dimethyl-3′H,5H-spiro[dibenzo[b,e]siline-10,1′-isobenzofuran]-3′-one, reference compound]: the “KL-Z lactone-zwitterion equilibrium value” in series [1] was 0.002. In series [2] (PBS), the “Em (nm)” value is 667 nm, the “Ex (nm)” value was determined as 648 nm and the “ϕ (quantum yield)” value turned out to be 0.38. Also, in series [2] (setting [5]), the “ε (M^−1 cm^−1)” value is reported as 130,000 M^−1 cm^−1. For the same compound, the “Brightness (ϕ × ε)” value in series [2] (setting [6]) was 49,400.
Turning to `COc1cccc(OC)c1C1=C2C=CC(=[N+](C)C)C=C2[Si@](C)(CCCSCCOCCOCCOCCOCCCCCCCl)c2cc(N(C)C)ccc21` [Compound 049, N-(5-(22-Chloro-7,10,13,16-tetraoxa-4-thiadocosyl)-10-(2,6-dimethoxyphenyl)-7-(dimethylamino)-5-methyldibenzo[b,e]silin-3(5H)-ylidene)-N-methylmethanaminium], in series [3], the “fluorescence contrast / background / localisation in cells” value is reported as “only stained mitochondria” and the “labeling of HaloTag®-expressing cells” value is on record as “did not label HaloTag®-expressing cells”.
In the case of `CN(C)c1ccc2c(c1)[Si@](C)(CCCSCCOCCOCCOCCOCCCCCCCl)c1cc(N(C)C)ccc1[C@@]21OC(=O)c2ccccc21` [Compound 051, (5r,10r)-5-(22-Chloro-7,10,13,16-tetraoxa-4-thiadocosyl)-3,7-bis(dimethylamino)-5-methyl-3′H,5H-spiro[dibenzo[b,e]siline-10,1′-isobenzofuran]-3′-one], in series [3], the “fluorescence contrast / background / localisation in cells” value is listed as “significant background” and the “labeling of HaloTag®-expressing cells” value is reported as “labeled HaloTag®-expressing cells”.
Consider `CN(C)c1ccc2c(c1)[Si@](C)(CCCSCC(=O)NCCOCCOCCCCCCCl)c1cc(N(C)C)ccc1[C@]21OC(=O)c2ccccc21` [Compound 044, 2-((3-((5s,10s)-3,7-Bis(dimethylamino)-5-methyl-3′-oxo-3′H,5H-spiro[dibenzo[b,e]siline-10,1′-isobenzofuran]-5-yl)propyl)thio)-N-(2-(2-((6-chlorohexyl)oxy)ethoxy)ethyl)acetamide], for which, in series [3], the “fluorescence contrast / background / localisation in cells” value is given as “poorly fluorescent in all cells” and the “labeling of HaloTag®-expressing cells” value was “did not label HaloTag®-expressing cells”.
The matching figures for `CN(C)c1ccc2c(c1)[Si@](C)(CCCSCCOCCOCCOCCOCCCCCCCl)c1cc(N(C)C)ccc1[C@]21OC(=O)c2ccccc21` [Compound 050, (5s,10s)-5-(22-Chloro-7,10,13,16-tetraoxa-4-thiadocosyl)-3,7-bis(dimethylamino)-5-methyl-3′H,5H-spiro[dibenzo[b,e]siline-10,1′-isobenzofuran]-3′-one]: “high background” and “did not label HaloTag®-expressing cells”.
As for `C[Si]1(C)c2cc(N3CCC3)ccc2C2(OC(=O)c3ccc(C(=O)NCCOCCOCCCCCCCl)cc32)c2ccc(N3CCC3)cc21` [JF646-HaloTag® ligand], the “fluorescence contrast / background / localisation in cells” value in series [3] is recorded as “high contrast images”.
For `C[Si]1(C)c2cc(N3CCC3)ccc2C2(OC(=O)c3ccccc32)c2ccc(N3CCC3)cc21` [Compound 031, 3,7-Di(azetidin-1-yl)-5,5-dimethyl-3′H,5H-spiro[dibenzo[b,e]siline-10,1′-isobenzofuran]-3′-one, reference compound], in series [1], the “KL-Z lactone-zwitterion equilibrium value” is recorded as 0.0034. In addition, in series [2] (PBS), the “Em (nm)” value is on record as 664 nm, the “Ex (nm)” value is given as 646 nm and the “ϕ (quantum yield)” value came out at 0.45. For the same compound, the “ε (M^−1 cm^−1)” value in series [2] (setting [5]) is 156,000 M^−1 cm^−1. Besides, in series [2] (setting [6]), the “Brightness (ϕ × ε)” value is 70,200.
For `Cc1ccccc1C1=c2cc3c(cc2[Si](C)(C)c2cc4c(cc21)CCCN4C)=[N+](C)CCC3` [Compound 016, 1,11,13,13-Tetramethyl-6-(o-tolyl)-2,3,4,8,9,10,11,13-octahydrosilino[3,2-g:5,6-g′]diquinolin-1-ium, reference compound], in series [2], the “Brightness (ϕ × ε)” value is on record as 41,850, the “Em (nm)” value amounted to 692 nm, the “Ex (nm)” value is listed as 674 nm and the “ε (M^−1 cm^−1)” value was 135,000 M^−1 cm^−1. Besides, in series [2] (PBS), the “ϕ (quantum yield)” value is 0.31. Besides, in series [4], the “emission wavelength, literature value” is recorded as 689 nm; the “excitation wavelength, literature value” is on record as 674 nm; the “ε, literature value” is 1.3×10^5; the “ϕ, literature value” is 0.35.
On to `C=C[Si]1(C=C)c2cc(N3CCC3)ccc2C2(OC(=O)c3ccccc32)c2ccc(N3CCC3)cc21` [Compound 034, 3,7-Di(azetidin-1-yl)-5,5-divinyl-3′H,5H-spiro[dibenzo[b,e]siline-10,1′-isobenzofuran]-3′-one], for which the “KL-Z lactone-zwitterion equilibrium value” in series [1] is reported as 0.00125. Besides, the “extinction coefficient (maximum) in EtOH/0.1% TFA” value in series [2] (EtOH/0.1% TFA) was 80,000 M−1 cm−1. For the same compound, in series [2] (SDS), the “Em (nm)” value amounted to 675 nm and the “Ex (nm)” value is reported as 656 nm. Further, the “extinction coefficient in anhydrous EtOH/0.1% TFA” value in series [2] (anhydrous EtOH/0.1% TFA) is ~144 000 M−1 cm-1. Further, the “ε (M^−1 cm^−1)” value in series [2] (setting [5]) is on record as 80,000 M^−1 cm^−1.
Regarding `Cc1ccccc1C1=C2C=CC(=[N+](C)C)C=C2[Si](C)(C)c2cc(N(C)C)ccc21` [Compound 001, N-(7-(Dimethylamino)-5,5-dimethyl-10-(o-tolyl)dibenzo[b,e]silin-3(5H)-ylidene)-N-methylmethanaminium, reference compound], in series [2] (PBS), the “Brightness (ϕ × ε)” value is listed as 43,102, the “Em (nm)” value is listed as 663 nm, the “Ex (nm)” value worked out at 648 nm and the “ε (M^−1 cm^−1)” value is listed as 126,400 M^−1 cm^−1. The “ϕ (quantum yield)” value in series [2] (PBS) came to 0.34. In series [4], the “emission wavelength, literature value” is on record as 658 nm; the “excitation wavelength, literature value” was 644 nm; the “ε, literature value” is listed as 1.1×10^5; the “ϕ, literature value” is reported as 0.31.
For the compound `Cc1ccccc1C1=c2cc3c(cc2[Si](C)(C)c2cc4c(cc21)CCN4C)=[N+](C)CC3` [Compound 020, 1,9,11,11-Tetramethyl-5-(o-tolyl)-2,3,7,8,9,11-hexahydrosilino[3,2-f:5,6-f]diindol-1-ium, reference compound], in series [2], the “Brightness (ϕ × ε)” value is 17,000, the “Em (nm)” value is reported as 715 nm, the “Ex (nm)” value is listed as 690 nm and the “ε (M^−1 cm^−1)” value was 100,000 M^−1 cm^−1. Besides, in series [2] (PBS), the “ϕ (quantum yield)” value stood at 0.17. Also, in series [4], the “emission wavelength, literature value” is listed as 712 nm; the “excitation wavelength, literature value” is listed as 691 nm; the “ε, literature value” is 1.0×10^5; the “ϕ, literature value” is listed as 0.12.
As for `CN(C)c1ccc2c(c1)[Si@](C)(CCCSCC(=O)NCCOCCOCCCCCCCl)c1cc(N(C)C)ccc1[C@@]21OC(=O)c2ccccc21` [Compound 045, 2-((3-((5r,10r)-3,7-Bis(dimethylamino)-5-methyl-3′-oxo-3′H,5H-spiro[dibenzo[b,e]siline-10,1′-isobenzofuran]-5-yl)propyl)thio)-N-(2-(2-((6-chlorohexyl)oxy)ethoxy)ethyl)acetamide], the “fluorescence contrast / background / localisation in cells” value in series [3] is “bright high contrast images that correlated strongly to GFP expression”.
In the case of `C=C[Si]1(C=C)c2cc3c(cc2C(c2ccccc2C)=c2cc4c(cc21)=[N+](C)CCC4)CCCN3C` [Compound 017, 1,11-Dimethyl-6-(o-tolyl)-13,13-divinyl-2,3,4,8,9,10,11,13-octahydrosilino[3,2-g:5,6-g′]diquinolin-1-ium], in series [2] (PBS), the “Brightness (ϕ × ε)” value was 75,104, the “Em (nm)” value is reported as 702 nm, the “Ex (nm)” value is 683 nm and the “ε (M^−1 cm^−1)” value is 234,700 M^−1 cm^−1. Besides, the “ϕ (quantum yield)” value in series [2] (PBS) turned out to be 0.32. Moreover, the “brighter than dimethylsilyl counterpart” value in series [2] (vs 001 (for 002, 009) or vs 016 (for 017), PBS) is listed as 60%.
